Legend:
Type in all cases: cell-based
BRAF G469A = target: T1, BRAF G469A (Homo sapiens, UniProt P15056, G469A); test: BRAF HiBiT degradation assay, C-terminal HiBiT-tagged BRAF G469A overexpressed in HCT-116 BRAF−/− cells (clone 34), Nano-Glo HiBiT Lytic assay
T1 construct: Horizon Discovery (HCT-116 BRAF−/− cells); host or cells: HCT-116 BRAF−/− cells, clone 34, lentiviral transduction
In short: (§1)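 Cells 3,000/well, 24 h at 37 °C; cpds 1 μM–0.01 nM, 11-pt half-log, duplicate, 0.2% DMSO. Readout: HiBiT lytic luminescence, 10 min at RT. Normalized to DMSO-treated tagged cells, with DMSO-treated wild-type HCT-116 as background. DC50 = fitted concentration at Y=50; Obs. Dmax = % degraded at maximal effect.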

BRAF G466V = target: T2, BRAF G466V (Homo sapiens, UniProt P15056, G466V); test: BRAF HiBiT degradation assay, C-terminal HiBiT-tagged BRAF G466V overexpressed in HCT-116 BRAF−/− cells (clone 8), Nano-Glo HiBiT Lytic assay
T2 construct: Horizon Discovery (HCT-116 BRAF−/− cells); host or cells: HCT-116 BRAF−/− cells, clone 8, lentiviral transduction
T2 sequence (P15056 whole entry G466V): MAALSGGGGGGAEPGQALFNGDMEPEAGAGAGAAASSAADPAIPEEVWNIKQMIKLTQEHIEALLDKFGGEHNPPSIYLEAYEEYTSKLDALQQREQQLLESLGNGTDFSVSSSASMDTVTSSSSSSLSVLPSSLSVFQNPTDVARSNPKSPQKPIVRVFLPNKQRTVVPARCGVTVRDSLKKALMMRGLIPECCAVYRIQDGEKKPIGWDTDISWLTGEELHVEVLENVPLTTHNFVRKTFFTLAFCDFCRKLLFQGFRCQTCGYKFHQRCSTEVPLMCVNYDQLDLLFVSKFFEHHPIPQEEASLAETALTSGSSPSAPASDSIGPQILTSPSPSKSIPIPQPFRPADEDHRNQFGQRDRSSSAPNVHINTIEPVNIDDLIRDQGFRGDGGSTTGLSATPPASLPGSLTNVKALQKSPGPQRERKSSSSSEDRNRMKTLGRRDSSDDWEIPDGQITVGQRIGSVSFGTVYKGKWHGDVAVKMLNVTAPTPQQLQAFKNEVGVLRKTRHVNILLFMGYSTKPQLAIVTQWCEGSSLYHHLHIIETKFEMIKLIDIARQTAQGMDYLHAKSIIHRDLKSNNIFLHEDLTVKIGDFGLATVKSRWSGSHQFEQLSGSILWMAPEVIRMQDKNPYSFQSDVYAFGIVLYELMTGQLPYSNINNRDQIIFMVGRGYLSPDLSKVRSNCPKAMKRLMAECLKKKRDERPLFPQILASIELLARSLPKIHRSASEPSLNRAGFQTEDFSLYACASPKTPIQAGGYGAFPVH
In short: as §1

BRAF V600E = target: T3, BRAF V600E (Homo sapiens, UniProt P15056, V600E); test: BRAF HiBiT degradation assay, C-terminal HiBiT-tagged BRAF V600E A375 cells (clone 1F10), Nano-Glo HiBiT Lytic assay; settings: for Dmax: A-375
T3 construct: endogenous C-terminal HiBiT fusion tag on BRAF V600E allele; endogenous in cells; host or cells: A375 clone 1F10 (CRISPR-Cas9 knock-in of the HiBiT tag; parental A375 from ATCC)
T3 sequence (P15056 whole entry V600E, the tested form may be a part): as the sequence (P15056 whole entry G466V) above, with V466G, V600E counted along it
In short: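 Luminescence read-out: Nano-Glo HiBiT lytic reagent with LgBiT, 10 min at room temperature. Signal normalised to DMSO-treated tagged cells, with wildtype A375 as background. Cells are endogenously tagged BRAF V600E A375 clone 1F10. Compounds were tested from 1 μM to 0.01 nM; Dmax is observed % degraded at maximal effect.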

BRAF D594G = target: T4, BRAF D594G (Homo sapiens, UniProt P15056, D594G); test: BRAF HiBiT degradation assay, C-terminal HiBiT-tagged BRAF D594G overexpressed in HCT-116 BRAF−/− cells (clone 63), Nano-Glo HiBiT Lytic assay
T4 construct: Horizon Discovery (HCT-116 BRAF−/− cells); host or cells: HCT-116 BRAF−/− cells, clone 63, lentiviral transduction
T4 sequence (P15056 whole entry D594G): as the sequence (P15056 whole entry G466V) above, with V466G, D594G counted along it
In short: as §1

[1] = BRAF G469A (Class 2), HCT-116 BRAF−/− cells, DC50 at 50% degradation
[2] = BRAF G469A (Class 2), HCT-116 BRAF−/− cells, observed Dmax relative to DMSO control
[3] = BRAF G466V (Class 3), HCT-116 BRAF−/− cells, DC50 at 50% degradation
[4] = BRAF G466V (Class 3), HCT-116 BRAF−/− cells, observed Dmax relative to DMSO control
[5] = A375 (BRAF V600E, Class 1), DC50 at 50% degradation
[6] = A375 (BRAF V600E, Class 1), observed Dmax, % protein degraded relative to DMSO control
[7] = BRAF D594G (Class 3), HCT-116 BRAF−/− cells, DC50 at 50% degradation
[8] = BRAF D594G (Class 3), HCT-116 BRAF−/− cells, observed Dmax relative to DMSO control
[9] = Class 2, BRAF G469A, DC50 at 50%: fitted conc. at Y=50
[10] = HCT-116, Class 2, BRAF G469A, percentage protein degraded at maximal compound effect relative to DMSO
[11] = BRAF G466V, DC50 at 50%: fitted conc. at Y=50
[12] = HCT-116, BRAF G466V, percentage protein degraded at maximal compound effect relative to DMSO
[13] = A375 (BRAF V600E), DC50 at 50%: fitted conc. at Y=50
[14] = A375 (BRAF V600E), percentage protein degraded at maximal compound effect relative to DMSO
[15] = BRAF D594G, DC50 at 50%: fitted conc. at Y=50
[16] = HCT-116, BRAF D594G, percentage protein degraded at maximal compound effect relative to DMSO

T1 sequence (P15056 whole entry G469A): as the sequence (P15056 whole entry G466V) above, with V466G, G469A counted along it

Row | SMILES | DC50 (BRAF G469A; [1]) [nM] | Dmax (BRAF G469A; [2]) [%] | DC50 (BRAF G466V; [3]) [nM] | Dmax (BRAF G466V; [4]) [%] | DC50 (BRAF V600E; [5]) [nM] | Dmax (BRAF V600E; [6]) [%] | DC50 (BRAF D594G; [7]) [nM] | Dmax (BRAF D594G; [8]) [%] | DC50 (BRAF G469A; [9]) [nM] | Dmax (BRAF G469A; [10]) [%] | DC50 (BRAF G466V; [11]) [nM] | Dmax (BRAF G466V; [12]) [%] | DC50 (BRAF V600E; [13]) [nM] | Dmax (BRAF V600E; [14]) [%] | DC50 (BRAF D594G; [15]) [nM] | Dmax (BRAF D594G; [16]) [%]
1 | CCN(C)S(=O)(=O)Nc1cc(F)cc(-c2cn(-c3ccc(N4CCN(CC5CCN(c6ccc(C7CCC(=O)NC7=O)cn6)CC5)CC4)cc3)nc2-c2ccncc2)c1F (racemic) [Compound 376, Rac-(3R)-3-(6-{4-[(4-{4-[4-(3-{[ethyl(methyl)sulfamoyl]amino}-2,5-difluorophenyl)-3-(pyridin-4-yl)-1H-pyrazol-1-yl]phenyl}piperazin-1-yl)methyl]piperidin-1-yl}pyridin-3-yl)piperidine-2,6-dione] | 10 to 50 | 30 to 70 | < 10 | > 70 | < 10 | > 70 | < 10 | > 70 |  |  |  |  |  |  |  | 
2 | CCCS(=O)(=O)Nc1cccc(-c2nc(C3CCC4(CC3)CN(C(=O)CCCCCc3ccc5c(c3)C(=O)N(C3CCC(=O)NC3=O)C5)C4)sc2-c2ccnc(N)n2)c1F (racemic) [Compound 234, Rac-N-{3-[5-(2-aminopyrimidin-4-yl)-2-[2-(6-{2-[(3R)-2,6-dioxopiperidin-3-yl]-3-oxo-2,3-dihydro-1H-isoindol-5-yl}hexanoyl)-2-azaspiro[3.5]nonan-7-yl]-1,3-thiazol-4-yl]-2-fluorophenyl}propane-1-sulfonamide] |  |  |  |  |  |  |  |  | > 500 | < 30 | 10 to 50 | 30 to 70 | < 10 | > 70 | < 10 | 30 to 70
3 | CCCS(=O)(=O)Nc1cccc(-c2nc(C(C)(C)C3CCN(C(=O)C4CN(C5CCN(c6ccc7c(c6)C(=O)N(C6CCC(=O)NC6=O)C7=O)CC5)C4)CC3)sc2-c2ccnc(N)n2)c1F (racemic) [Compound 243, Rac-N-{3-[5-(2-aminopyrimidin-4-yl)-2-(2-{1-[1-(1-{2-[(3R)-2,6-dioxopiperidin-3-yl]-1,3-dioxo-2,3-dihydro-1H-isoindol-5-yl}piperidin-4-yl)azetidine-3-carbonyl]piperidin-4-yl}propan-2-yl)-1,3-thiazol-4-yl]-2-fluorophenyl}propane-1-sulfonamide] |  |  |  |  |  |  |  |  | > 500 | < 30 | > 500 | < 30 | 50 to 500 | 30 to 70 | > 500 | 30 to 70
4 | CCCS(=O)(=O)Nc1cccc(-c2nc(C(C)(C)C)sc2-c2ccnc(Nc3ccc(C4CCN(CC5CCN(c6cncc(C7CCC(=O)NC7=O)c6)CC5)CC4)cc3)n2)c1F (racemic) [Compound 177, Rac-N-[3-(2-tert-butyl-5-{2-[(4-{1-[(1-{5-[(3R)-2,6-dioxopiperidin-3-yl]pyridin-3-yl}piperidin-4-yl)methyl]piperidin-4-yl}phenyl)amino]pyrimidin-4-yl}-1,3-thiazol-4-yl)-2-fluorophenyl]propane-1-sulfonamide] |  |  |  |  |  |  |  |  | > 500 | < 30 | > 500 | < 30 | 10 to 50 | > 70 | > 500 | < 30
5 | CCN(C)S(=O)(=O)Nc1cccc(-c2nc(C(C)(C)C)sc2-c2ccnc(Nc3ccc(N4CCN(CC5CC6(C5)CN(c5ccc(C7CCC(=O)NC7=O)cn5)C6)CC4)cn3)n2)c1F (racemic) [Compound 30, Rac-(3R)-3-{6-[6-({4-[6-({4-[2-tert-butyl-4-(3-{[ethyl(methyl)sulfamoyl]amino}-2-fluorophenyl)-1,3-thiazol-5-yl]pyrimidin-2-yl}amino)pyridin-3-yl]piperazin-1-yl}methyl)-2-azaspiro[3.3]heptan-2-yl]pyridin-3-yl}piperidine-2,6-dione] |  |  |  |  |  |  |  |  | 10 to 50 | 30 to 70 | 10 to 50 | 30 to 70 | < 10 | > 70 | < 10 | 30 to 70
6 | O=C1CCC(c2ccc(N3CCC(CN4CCN(c5ccc(-n6cc(-c7cc(F)cc(NS(=O)(=O)N8CCCC8)c7F)c(-c7ccncc7)n6)cc5)CC4)CC3)nc2)C(=O)N1 (racemic) [Compound 267, Rac-(R)—N-(3-(1-(4-(4-((1-(5-(2,6-dioxopiperidin-3-yl)pyridin-2-yl)piperidin-4-yl)methyl)piperazin-1-yl)phenyl)-3-(pyridin-4-yl)-1H-pyrazol-4-yl)-2,5-difluorophenyl)pyrrolidine-1-sulfonamide] | 10 to 50 | > 70 | < 10 | > 70 | < 10 | > 70 | < 10 | > 70 |  |  |  |  |  |  |  | 
7 | O=C1CCC(c2ccc(N3CCC(CN4CCN(c5ccc(-n6cc(-c7cc(C(F)F)cc(NS(=O)(=O)N8CCCC8)c7F)c(-c7ccncc7)n6)c(F)c5)CC4)CC3)nc2)C(=O)N1 (racemic) [Compound 357, Rac-N-[5-(difluoromethyl)-3-[1-(4-{4-[(1-{5-[(3R)-2,6-dioxopiperidin-3-yl]pyridin-2-yl}piperidin-4-yl)methyl]piperazin-1-yl}-2-fluorophenyl)-3-(pyridin-4-yl)-1H-pyrazol-4-yl]-2-fluorophenyl]pyrrolidine-1-sulfonamide] | 10 to 50 | > 70 | < 10 | > 70 | < 10 | > 70 | < 10 | 30 to 70 |  |  |  |  |  |  |  | 
8 | CCCS(=O)(=O)Nc1cccc(-c2cn(-c3ccc(N4CCN(CC5CCN(c6ccc([C@@H]7CCC(=O)NC7=O)cc6)CC5)CC4)nc3)nc2-c2ccncc2)c1F [Compound 4, N-{3-[1-(6-{4-[(1-{4-[(3S)-2,6-dioxopiperidin-3-yl]phenyl}piperidin-4-yl)methyl]piperazin-1-yl}pyridin-3-yl)-3-(pyridin-4-yl)-1H-pyrazol-4-yl]-2-fluorophenyl}propane-1-sulfonamide] |  |  |  |  |  |  |  |  | > 500 | < 30 | 10 to 50 | 30 to 70 | 10 to 50 | > 70 | > 500 | 30 to 70
9 | CCCS(=O)(=O)Nc1cccc(-c2nc(C(C)(C)C)sc2-c2ccnc(Nc3ccc(N4CCN(C(=O)CC5(O)CCN(c6ccc(NC7CCC(=O)NC7=O)cc6F)CC5)CC4)c(F)c3)n2)c1F (racemic) [Compound 52, Rac-N-{3-[2-tert-butyl-5-(2-{[4-(4-{2-[1-(4-{[(3R)-2,6-dioxopiperidin-3-yl]amino}-2-fluorophenyl)-4-hydroxypiperidin-4-yl]acetyl}piperazin-1-yl)-3-fluorophenyl]amino}pyrimidin-4-yl)-1,3-thiazol-4-yl]-2-fluorophenyl}propane-1-sulfonamide] |  |  |  |  |  |  |  |  | > 500 | < 30 | > 500 | < 30 | < 10 | > 70 | > 500 | < 30
10 | CCCS(=O)(=O)Nc1cccc(-c2nc(C3CCN(C(=O)C4CCN(CC5CCN(c6ccc(C7CCC(=O)NC7=O)cn6)CC5)CC4)CC3)sc2-c2ccncc2)c1F (racemic) [Compound 211, Rac-N-{3-[2-(1-{1-[(1-{5-[(3R)-2,6-dioxopiperidin-3-yl]pyridin-2-yl}piperidin-4-yl)methyl]piperidine-4-carbonyl}piperidin-4-yl)-5-(pyridin-4-yl)-1,3-thiazol-4-yl]-2-fluorophenyl}propane-1-sulfonamide] |  |  |  |  |  |  |  |  | > 500 | < 30 | > 500 | 30 to 70 | 50 to 500 | > 70 | > 500 | 30 to 70

— patent US20260317324A1, “BIFUNCTIONAL COMPOUNDS FOR DEGRADING BRAF VIA UBIQUITIN PROTEOSOME PATHWAY” (Nurix Therapeutics, Inc., priority 2023, published 2026)
